Measured values taken from patent US11160785B2, “Methods and compositions for improving cognitive function” (AgeneBio, Inc., priority 2013, dated 2021).

Assays:
MAM-treated rats = conditions: cited from earlier work
aged-impaired rats [1] = experiment: Radial Arm Maze task, acute brivaracetam or seletracetam (Example 4); conditions: rat, in vivo
aged-impaired rats [2] = experiment: water maze task after chronic treatment (Example 4); assay type: in vivo, rat; conditions: brivaracetam 2 mg/kg/day, osmotic mini-pump
Source text: Another cognitive test that may be used to assess the effects of a test compound on the cognitive impairment of a CNS disorder model animal is the Morris water maze. A water maze is a pool surrounded with a novel set of patterns relative to the maze. […] The subject is trained to locate a submerged escape platform hidden underneath the surface of the pool. During the training trial, a subject is released in the maze (pool) from random starting positions around the perimeter of the pool. The starting position varies from trial to trial. […] After a delay period following the last training trial, a retention test in the absence of the escape platform is given to assess spatial memory. The subject's level of preference for the location of the (now absent) escape platform, as measured by, e.g., the time spent in that location or the number of crossings of that location made by the mouse, indicates better spatial memory, i.e., treatment of cognitive impairment. The preference for the location of the escape platform under different treatment conditions, can then be compared for efficacy of the test compound in treating cognitive impairment associated with CNS disorders.
The radial arm maze experiments used acute administration of seletracetam (0-4 mg/kg), brivaracetam (0-4 mg/kg), or saline vehicle given by intraperitoneal injection (in a volume of 1 ml/kg) 30-40 min prior to test sessions. In the chronic treatment experiment, memory-impaired aged rats were implanted subcutaneously in the intrascapular region with osmotic mini-pumps (ALZET, Durect Corporation, Cupertino, Calif.) with brivaracetam (2 mg/kg/day) or saline vehicle starting two weeks prior to assessment in the water maze.
Rats were trained and tested in a novel water maze environment to assess the effect of drug treatment. The water maze used here was housed in a different building and was surrounded by curtains with a novel set of patterns relative to the maze used for initial assessment of cognitive status. The training protocol consisted of 6 trials per day for 2 days to locate a submerged escape platform. […]

aged-impaired rats (AI) = assay type: in vivo, rat; conditions: rat, in vivo
Description: FIG. 1 depicts the effects of administering levetiracetam on the spatial memory retention of ten aged-impaired rats (AI) in an eight-arm Radial Arm Maze (RAM) test. Six treatment conditions are employed: vehicle control, levetiracetam (1.25 mg/kg/day), levetiracetam (2.5 mg/kg/day), levetiracetam (5 mg/kg/day), levetiracetam (10 mg/kg/day) and levetiracetam (20 mg/kg/day). In the RAM task used, there is a one-hour delay between presentation of a subset of arms (5 arms available and 3 arms blocked) and completion of the eight-arm win-shift task (eight arms available). Rats are pre-treated 30-40 minutes before daily trials with a one-time drug/control treatment. The number of errors made by the rats during the retention phase is used as a measure of spatial memory retention. Errors are defined as instances when rats enter an arm from which food has already been retrieved in the pre-delay component of the trial or when rats re-visit an arm in the post-delay session that had already been visited. Paired t-tests are used to compare the number of errors between different doses of levetiracetam and vehicle control. […]
A Radial Arm Maze (RAM) behavioral task is one example of a cognitive test, specifically testing spacial memory (Chappell et al. Neuropharmacology 37: 481-487, 1998). The RAM apparatus consists of, e.g., eight equidistantly spaced arms. A maze arm projects from each facet of a center platform. A food well is located at the distal end of each arm. Food is used as a reward. Blocks can be positioned to prevent entry to any arm. Numerous extra maze cues surrounding the apparatus may also be provided. After habituation and training phases, spatial memory of the subjects may be tested in the RAM under control or test compound-treated conditions. As a part of the test, subjects are pretreated before trials with a vehicle control or one of a range of dosages of the test compound. At the beginning of each trial, a subset of the arms of the eight-arm maze is blocked. Subjects are allowed to obtain food on the unblocked arms to which access is permitted during this initial “information phase” of the trial. Subjects are then removed from the maze for a delay period, e.g., a 60 second delay, a 15 minute delay, a one-hour delay, a two-hour delay, a six hour delay, a 24 hour delay, or longer) between the information phase and the subsequent “retention test,” during which the barriers on the maze are removed, thus allowing access to all eight arms. […] The identity and configuration of the blocked arms vary across trials. The number of “errors” the subjects make during the retention test phase is tracked. An error occurs in the trial if the subjects entered an arm from which food had already been retrieved in the pre-delay component of the trial, or if it re-visits an arm in the post-delay session that had already been visited. A fewer number of errors would indicate better spatial memory. The number of errors made by the test subject, under various test compound treatment regimes, can then be compared for efficacy of the test compound in treating cognitive impairment associated with CNS disorders.

In the case of `C#Cc1ccc2c(c1)C(c1ccccc1F)=N[C@H](C)c1c(C(=O)OCC)ncn1-2` [SH-053-2′F-R-CH3], the “number of spontaneously active DA neurons in the ventral tegmental area (VTA)” value (MAM-treated rats; MAM rats, administered systemically or infused into the ventral HPC, to levels of saline-treated rats) is given as “reduces the number of spontaneously active DA neurons”, the “increased locomotor response to amphetamine” value (MAM-treated rats; MAM-treated rats) is given as “reduced” and the “cortical-evoked responses of HPC neurons” value (MAM-treated rats; saline-treated and MAM-treated animals) is given as “diminished cortical-evoked responses”.
With `CCC[C@@H]1CC(=O)N([C@@H](CC)C(N)=O)C1` [brivaracetam] the “number of errors in the retention phase, effect as a function of dose” value (aged-impaired rats [1]) was “significant effect as a function of dose”, the “spatial bias for the target quadrant compared to the other quadrants (probe test)” value (aged-impaired rats [2]; 14 days, n=3/group, t(2)=10.000, p=0.010) was “significant spatial bias for the target quadrant” and the “time in the target annulus vs vehicle-treated rats” value (aged-impaired rats [2]; t(4)=3.109, p=0.036) was “significantly more time in the target annulus”. The “time in the target quadrant vs vehicle-treated rats” value (aged-impaired rats [2]; t(4)=3.881, p=0.018) was “significantly more time in the target quadrant”.
In the case of `COc1cc2c(cc1OC)C(=O)C(CC1CCN(Cc3ccccc3)CC1)C2` (stereo not drawn) [donepezil, 2,3-dihydro-5,6-dimethoxy-2-((1-(phenylmethyl)-4-piperidinyl)methyl)-1H-inden-1-one], the “average no. of errors±SEM” value (aged-impaired rats (AI)) is reported as 2.81±0.43 and the “average no. of errors±standard error of the mean (SEM)” value (aged-impaired rats (AI)) is reported as 2.88±0.46.
In the case of `CC[C@@H](C(N)=O)N1C[C@H](C=C(F)F)CC1=O` [seletracetam], the “number of errors in the retention phase, effect as a function of dose” value (aged-impaired rats [1]) is reported as “significant effect as a function of dose”.
In the case of `NC1=N[C@H](O)[C@H]2[C@H]3O[C@]4(O)O[C@@H]([C@@H](O)[C@@]2(N1)[C@@H]4O)[C@]3(O)CO` [tetrodotoxin], the “augmented amphetamine-induced locomotor behavior” value (MAM-treated rats; rat, in vivo) is given as “normalized the augmented amphetamine-induced locomotor behavior” and the “elevated DA neuron population activity” value (MAM-treated rats; rat, in vivo) is given as “completely reversed the elevated DA neuron population activity”.
